Test results published in BindingDB's records for doi:10.1021/jm070574f (University of Copenhagen, 2007).

Biological target: Neuronal acetylcholine receptor subunit alpha-7 (Homo sapiens, UniProt P36544)
Assay: Antagonist activity at human alpha-7 nAChR in tsA201 cells coexpressed with Ric3 by FMP assay

Neuronal acetylcholine receptor subunit alpha-7, sequence (P36544 whole entry): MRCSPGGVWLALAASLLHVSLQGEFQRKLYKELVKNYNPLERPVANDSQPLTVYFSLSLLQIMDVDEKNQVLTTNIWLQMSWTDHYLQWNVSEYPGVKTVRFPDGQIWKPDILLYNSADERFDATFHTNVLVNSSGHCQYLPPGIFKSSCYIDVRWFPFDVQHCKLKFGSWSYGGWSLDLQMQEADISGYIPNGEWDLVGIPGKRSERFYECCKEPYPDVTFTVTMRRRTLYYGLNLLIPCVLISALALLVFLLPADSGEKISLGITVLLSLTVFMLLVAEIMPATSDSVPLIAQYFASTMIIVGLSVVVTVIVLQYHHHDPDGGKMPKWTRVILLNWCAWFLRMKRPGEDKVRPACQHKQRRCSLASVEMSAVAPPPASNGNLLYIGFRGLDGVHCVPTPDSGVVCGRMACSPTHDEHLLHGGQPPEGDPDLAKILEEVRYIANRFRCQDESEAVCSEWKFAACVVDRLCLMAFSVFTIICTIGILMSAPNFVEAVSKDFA

CCN1C[C@]2(COC(=O)c3ccccc3-n3c(O)cc(C)c3O)CC[C@H](OC)[C@]34[C@@H]5C[C@H]6[C@H](OC)[C@@H]5[C@](O)(C[C@@H]6OC)[C@@](O)([C@H]13)[C@@H](OC)[C@H]24 [METHYLLYCACONITINE]
IC50: 8.3 nM
